According to PubChem BioAssay AID2060890 (Molecular Pharmacology Branch, DTP, NCI, 2025):

Test system: LG0703-F948-PDC complex spheroid viability
Assay: Anticancer human tumor LG0703-F948-PDC patient-derived lung adenocarcinoma cell line growth inhibition [RAS]
Details: for IC50: curve of first compound; for viability, T/C: stronger effect = lower value
How it was run: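 Agents were tested in combination matrices in half-log decrements from a top concentration at or near clinical Cmax (10 microM if undetermined). Targets were multi-cell spheroids of tumour lines plus HUVEC and MSC stromal cells.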
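Also: spheroids exposed to agents for 7 days.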
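For viability, T/C in this document: 100% = DMSO vehicle wells.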

With CC(Nc1ccc2c(c1)OCCn1cc(N3C(=O)OCC3C(F)F)nc1-2)C(N)=O (configuration not stated) + C=CC(=O)N1CCN(c2nc(OCC3CCCN3C)nc3c(F)c(-c4nc(N)cc(C)c4C(F)(F)F)c(Cl)cc23)C(C)C1 the IC50 (second compound 0.00316 µM) was 1150 nM, the IC50 (second compound 0.01 µM) was 882 nM and the IC50 (second compound 0.0316 µM) was 987 nM. For the same compound, the IC50 (second compound 0.1 µM) was 967 nM, the IC50 (second compound 0.316 µM) was 962 nM and the IC50 (second compound 1 µM) was 1190 nM. It also gave a viability, T/C (second compound 0.00316 µM, first compound 0.0316 µM) of 91.8%, a viability, T/C (second compound 0.00316 µM, first compound 0.1 µM) of 84.8% and a viability, T/C (second compound 0.00316 µM, first compound 0.316 µM) of 64.5%. For the same compound, the viability, T/C (second compound 0.00316 µM, first compound 1 µM) was 53.5%, the viability, T/C (second compound 0.00316 µM, first compound 3.16 µM) was 34.7% and the viability, T/C (second compound 0.00316 µM, first compound 10 µM) was 14.8%. It also gave a viability, T/C (second compound 0.01 µM, first compound 0.0316 µM) of 99.9%, a viability, T/C (second compound 0.01 µM, first compound 0.1 µM) of 83.3% and a viability, T/C (second compound 0.01 µM, first compound 0.316 µM) of 62.2%. The viability, T/C (second compound 0.01 µM, first compound 1 µM) was 49.5%, the viability, T/C (second compound 0.01 µM, first compound 3.16 µM) was 32.9% and the viability, T/C (second compound 0.01 µM, first compound 10 µM) was 14.2%. It also gave a viability, T/C (second compound 0.0316 µM, first compound 0.0316 µM) of 98.9%, a viability, T/C (second compound 0.0316 µM, first compound 0.1 µM) of 86.7% and a viability, T/C (second compound 0.0316 µM, first compound 0.316 µM) of 66.9%. The viability, T/C (second compound 0.0316 µM, first compound 1 µM) was 47.4%, the viability, T/C (second compound 0.0316 µM, first compound 3.16 µM) was 34.6% and the viability, T/C (second compound 0.0316 µM, first compound 10 µM) was 13.5%. The viability, T/C (second compound 0.1 µM, first compound 0.0316 µM) was 105%, the viability, T/C (second compound 0.1 µM, first compound 0.1 µM) was 86.3% and the viability, T/C (second compound 0.1 µM, first compound 0.316 µM) was 63.9%. It also gave a viability, T/C (second compound 0.1 µM, first compound 1 µM) of 50.9%, a viability, T/C (second compound 0.1 µM, first compound 3.16 µM) of 35.2% and a viability, T/C (second compound 0.1 µM, first compound 10 µM) of 12.9%. For the same compound, the viability, T/C (second compound 0.316 µM, first compound 0.0316 µM) was 113%, the viability, T/C (second compound 0.316 µM, first compound 0.1 µM) was 86.6% and the viability, T/C (second compound 0.316 µM, first compound 0.316 µM) was 68%. It also gave a viability, T/C (second compound 0.316 µM, first compound 1 µM) of 44.3%, a viability, T/C (second compound 0.316 µM, first compound 3.16 µM) of 34.4% and a viability, T/C (second compound 0.316 µM, first compound 10 µM) of 14.8%. It also gave a viability, T/C (second compound 1 µM, first compound 0.0316 µM) of 108%, a viability, T/C (second compound 1 µM, first compound 0.1 µM) of 96.5% and a viability, T/C (second compound 1 µM, first compound 0.316 µM) of 69.2%. It also gave a viability, T/C (second compound 1 µM, first compound 1 µM) of 53.5%, a viability, T/C (second compound 1 µM, first compound 3.16 µM) of 36% and a viability, T/C (second compound 1 µM, first compound 10 µM) of 11.7%.
